Measurements published in patent publication US20040086880A1, “Method of producing nucleic acid molecules with reduced secondary structure” (priority 1999, published 2004).

Assays:
Assay type in all cases: biochemical
[1] = biological target: T1, SuperScript II MMLV reverse transcriptase (Moloney murine leukemia virus, UniProt P03355, D1183G/D1242N/E1221Q); experiment: Synthesis of fluorescently labeled cUNA from pBp-1 T7-RNA template with dCTP-Cy5; settings: substituted for dATP and TTP; one hour
T1 construct: 200 units of SuperScript II MMLV reverse transcriptase (InVitrogen); purchased InVitrogen
Experimental: The ability to generate fluorescently labeled cUNAs was tested using the pBp-1 T7-RNA template and dCTP-Cy5 fluorescently labeled nucleotide analogue (Perkin-Elmer/NEN). The reverse transcriptase reactions (10.0 uL) were performed in 0.65 mL pre-siliconized microfuge tubes containing the following components: 50 mM Tris-Cl (pH 8.3), 75 mM KCl, 3.0 mM MgCl2, 4.5 mM DTT, 500 uM dGTP (or dITP), 500 uM dATP (or 2-amino-2′-deoxyadenosine-5′-triphosphate), 500 uM TTP (or 2-thiothymidine-5′-triphosphate), the indicated amounts of dCTP and dCTP-Cy5, 40 nM pBp-1 RNA template, 1.0 uM T16N2 primer, 1.0 unit of RNase Out (In Vitrogen), and 100 units of SuperScript II MMLV reverse transcriptase (In Vitrogen). The buffer components, RNA template, and primer were annealed by heating to 75° C. for 4 minutes and quickly cooled to room temperature. The dNTPs and RNase inhibitor were then added and the reactions were initiated by the addition of the reverse transcriptase and incubated at 42° C. At one and three hours, 5.0 uL aliquots were removed, mixed with 0.07 ug of RNase A, and incubated at room temperature for 30 minutes. The ribonucleased reaction mixtures were quenched with EDTA and 8 M urea and separated by electrophoresis on 5% polyacrylamide gels (19:1) containing 1×TBE and 9M urea. The fluorescently-labeled products were visualized using a phosphorimager.

[2] = biological target: T2, Bst DNA polymerase (Geobacillus stearothermophilus, UniProt P52026); experiment: Synthesis of single-stranded 56-mer by primer extension and lambda exonuclease digestion; settings: substituted for dATP and dTTP; for full-length 56-mer product: 65° C., 30 minutes
T2 sequence (P52026 1-876): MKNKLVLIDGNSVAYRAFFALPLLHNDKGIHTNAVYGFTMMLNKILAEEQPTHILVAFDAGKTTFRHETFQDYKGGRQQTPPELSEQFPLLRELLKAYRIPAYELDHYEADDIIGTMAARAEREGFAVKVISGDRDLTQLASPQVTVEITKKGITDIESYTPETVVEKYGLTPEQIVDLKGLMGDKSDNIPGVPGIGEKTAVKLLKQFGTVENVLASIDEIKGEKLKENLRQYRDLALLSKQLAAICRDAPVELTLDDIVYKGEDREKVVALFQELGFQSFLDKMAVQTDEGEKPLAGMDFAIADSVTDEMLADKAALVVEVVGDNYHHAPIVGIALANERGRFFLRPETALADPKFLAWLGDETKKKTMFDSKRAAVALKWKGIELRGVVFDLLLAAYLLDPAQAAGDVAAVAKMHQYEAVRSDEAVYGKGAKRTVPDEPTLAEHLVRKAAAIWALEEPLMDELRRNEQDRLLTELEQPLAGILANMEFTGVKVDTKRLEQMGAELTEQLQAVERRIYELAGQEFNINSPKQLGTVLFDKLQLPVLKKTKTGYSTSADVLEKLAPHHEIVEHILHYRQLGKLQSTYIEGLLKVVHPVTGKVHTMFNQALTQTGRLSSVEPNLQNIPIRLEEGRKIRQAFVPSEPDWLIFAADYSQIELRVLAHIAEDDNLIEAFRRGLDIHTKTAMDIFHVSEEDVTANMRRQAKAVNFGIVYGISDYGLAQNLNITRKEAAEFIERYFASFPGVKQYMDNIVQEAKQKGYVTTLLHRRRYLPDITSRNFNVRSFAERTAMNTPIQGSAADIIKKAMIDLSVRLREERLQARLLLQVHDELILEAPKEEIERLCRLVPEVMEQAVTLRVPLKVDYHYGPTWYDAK
Experimental: Unstructured single-stranded UNA was generated by incorporating 2-aminoadenosine and 2-thiothymidine nucleotides using a 14-mer primer and 56-mer template (5′-phosphorylated) and Bst DNA polymerase followed by digestion of the DNA template with lambda exonuclease (FIG. 6). Ten microliter extension reactions were performed in 0.65 ml pre-siliconized microfuge tubes containing the following components: 20 mM Tris-Cl (pH 8.8 @ 25° C.), 10 mM KCl, 10 mM (NH4)2SO4, 2 mM MgSO4, 0.1% Triton-X100, 1.0 microM primer/template, 500 microM dGTP, 500 microM dATP (or 2-amino-2′-deoxyadenosine-5′-triphosphate), 500 microM dTTP (or 2-thiothymidine-5′-triphosphate), 200 microM ^32P--CTP and 0.8 units/microL Bst DNA polymerase. The reactions were incubated at 65° C. for 30 minutes, quenched with 5 mM EDTA, ethanol precipitated, dried and resuspended in 10 microL of 10 mM Tris-Cl pH 8.0. The 56-mer template was digested by incubating the resuspended samples with 10 units of lambda exonuclease (Strandase Kit™, (Novagen; Madison, Wis.)) for 30 minutes at 37° C. The reactions were quenched with 5 mM EDTA, ethanol precipitated, dried and resuspended in 10 microL of 10 mM Tris-Cl pH 8.0. The samples were then electrophoresed on 10% denaturing (7M urea) polyacrylamide gels and visualized using phosphorimaging methods.

[3] = tested on: Bst DNA polymerase, Taq DNA polymerase, MMLV-RT; experiment: Polymerase extension of 32P-labeled 12-mer primer on synthetic 30-mer template to full-length product; settings: all three polymerases
Experimental: The ability of the Bacillus sterothermophilus (Bst) DNA polymerase (New England Biolabs), the Thermus aquaticus (Taq) DNA polymerase (Amersham) and the Moloney Murine Leukemia Virus reverse transcriptase (MMLV-RT) (Amersham) to incorporate the 2-amino-2′-deoxyadenosine-5′-triphosphate and 2-thiothymidine-5′-triphosphate into polynucleotides was tested using a synthetic 30-mer template and ^32P-labeled 12-mer primer (S.A. 130 Ci/mmol). (FIG. 2A). Extension reactions for each polymerase were performed in 0.65 ml pre-siliconized microfuge tubes containing the following components: (Bst) 20 mM Tris-Cl (pH 8.8 @ 25° C.), 10 mM KCl, 10 mM (NH4)2SO4, 2 mM MgSO4, 0.1% Triton-X100, 0.5 microM primer/template, 250 microM each dNTP and 0.15 units/microL Bst DNA polymerase; (Taq) 26 mM Tris-Cl (pH 9.5 @25° C.), 6.5 mM MgCl2, 0.5 microM primer/template, 250 microM each dNTP and 0.15 units/microL Taq DNA polymerase; (MMLV-RT) 50 mM Tris-Cl (pH 8.3 @ 25° C.) 75 mM KCl, 3 mM MgCl2, […], 0.5 microM primer/template, 250 microM each dNTP and 0.5 units/microL MMLV-RT. The reactions were incubated for 15 minutes at 65° C. for the Bst and Taq reactions and 42° C. for the MMLV-RT reaction. The reaction mixtures were separated by electrophoresis on 10% denaturing (7M urea) polyacrylamide gels and visualized by phosphorimaging methods.

SMILES | full-length fluorescently-labeled product [1] | premature termination products [2] | full-length 56-mer product [2] | full-length product when both analogues are substituted for A and T in a single reaction mixture [3]
Cc1cn([C@H]2C[C@H](O)[C@@H](COP(=O)(O)OP(=O)(O)OP(=O)(O)O)O2)c(=S)[nH]c1=O [2-thiothymidine-5′-triphosphate] | full-length fluorescently-labeled product is generated | little if any | full-length 56-mer product is generated | full-length product was generated
Nc1nc(N)c2ncn([C@H]3C[C@H](O)[C@@H](COP(=O)(O)OP(=O)(O)OP(=O)(O)O)O3)c2n1 [2-amino-2′-deoxyadenosine-5′-triphosphate] | full-length fluorescently-labeled product is generated | little if any | full-length 56-mer product is generated | full-length product was generated
